What all share (assay type): cell-based
One test addresses zebrafish MR (zfMR) (Danio rerio, UniProt A6YIH7). The test can be described thus: UG5LN-GAL4-zfMR luciferase reporter cell assay (agonism and antagonism tests). The following applies: UG5LN-GAL4-zfMR cells. Here is the method: (§1) The U2OS cells used to establish the MR reporter cell lines were obtained from and verified by ECACC (UK Health Security Agency, Porton Down, Salisbury, UK). The strategy used has been described previously to establish other NR-based cell lines.[42] First, the different pSG5-GAL4(DBD)-MRs (LBD) and (GAL4RE)5βGlob-Luc-SVNeo plasmids were tested by transient transfections in U2OS. Then, the UG5LN-GAL4-hMR and UG5LN-GAL4-zfMR clonal cells were generated in two steps. The first step was to establish clonal UG5LN cells by a stable transfection of U2OS cells, considered as steroid receptor negative, with the plasmid (GAL4RE)5βGlob-Luc-SVNeo. The second step consisted of the transfection of UG5LN cells with the plasmids pSG5-GAL4(DBD)-hMR(LBD)-puro, pSG5-GAL4(DBD)-hMRT870L(LBD)-puro or pSG5-GAL4(DBD)-zfMR(LBD)-puro, to generate UG5LN-GAL4-hMR, UG5LN-GAL4-hMRT870L and UG5LN-GAL4-zfMR clonal cells, respectively. Stable cell clones were selected in the presence of puromycin 0.5 μg/mL and G418 1 mg/mL. For each receptor, 5 to 10 clones were chosen for their ligand-induced luciferase expression. The clones were amplified and luciferase expression was checked at several passages. For each receptor, the clone with the best induction of luciferase activity was selected and used for the screening of the different chemicals. The stability and the inducibility of luciferase expression were checked during at least 20 passages (20 weeks).
(§2) To perform the reporter gene assay, cells were seeded in 96-wells white transparent culture plates (Greiner bio-one 655098CellStar; Dutscher, Brumath, France) at a density of 60,000 cells per well in 150 μL of culture medium and incubated at 37°C and 5% CO2 for 24 h. Then, after the attachment period, medium was removed and cells were exposed to increasing dilutions of the tested compounds in the experimental medium (DMSO; final concentration 0.1% v/v for chemicals and 0.3% v/v for water sample extracts) and incubated at 37°C and 5% CO2. After 24 h, medium was removed and replaced with 50 μL/well of experimental medium containing 0.3 mM luciferin. The luminescence signal was monitored in intact live cells for 2 s per well using a MicroBeta Wallac luminometer (PerkinElmer, Courtaboeuf, France). All experiments were performed in quadruplicate.
(§3) The quantification and statistical analysis are integral parts of the software used (GraphPad Prism 10, GraphPad Software Inc). The compounds were tested at different concentrations in at least three independent experiments. In each experiment, the compounds were tested in quadruplicate for each concentration, and the data were expressed as averages of the quadruplicates with their standard deviation to obtain a single value for that experimental series. Then, individual dose-response curves for each chemical were fitted from the averages of the three individual experiments using the sigmoidal dose-response function of the graphics and statistics software program GraphPad. Specifically, GraphPad employs nonlinear regression with the least squares method to fit the data to a sigmoidal function (based on the Hill equation). This method is used to determine the optimal parameter values, such as the Half Maximal Effective concentration (EC50) for agonist and the Half Maximal Inhibitory Concentration (IC50) for antagonist. […] Once the best-fit curve was obtained, the confidence intervals (e.g., 95% CI) for these parameters were estimated based on the uncertainty (variance) derived from the regression model, and the lower and upper 95% confidence limits of EC50s and IC50s were reported.
(In general: A reporter such as luciferase makes a cellular process visible.)

For another test, the target named is T1, human MR (hMR) (Homo sapiens, UniProt P08235).
T1 construct: hMR(LBD) (G671-K894) and zfMR(LBD) (L668-K970) have been amplified by PCR; expressed in transfected cells
T1 sequence (P08235 671-984 limits assumed): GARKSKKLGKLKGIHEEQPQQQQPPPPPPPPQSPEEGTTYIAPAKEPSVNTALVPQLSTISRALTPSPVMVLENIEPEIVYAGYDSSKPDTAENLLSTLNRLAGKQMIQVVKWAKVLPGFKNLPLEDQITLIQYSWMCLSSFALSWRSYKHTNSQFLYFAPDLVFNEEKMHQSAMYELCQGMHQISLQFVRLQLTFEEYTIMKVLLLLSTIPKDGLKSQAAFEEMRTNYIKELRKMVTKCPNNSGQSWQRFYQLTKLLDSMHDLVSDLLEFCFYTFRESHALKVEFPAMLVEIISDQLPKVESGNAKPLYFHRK
The test can be described thus: UG5LN-GAL4-hMR luciferase reporter cell assay (agonism and antagonism tests). Here is the method:
as §1, §2, §3

For the next test, the system named is UG5LN cell line. The test can be described thus: UG5LN control cells (luciferase gene only, lacking MR), non-specific luciferase modulation. Particulars: steroids at 10^−8 M and 10^−5 M, bimedrazol at 10^−8 M and 10^−6 M. The source says: In order to establish an MR reporter cell line, we selected the U2OS cell line, as it expresses low levels of steroid receptors, such as GR, which could have interfered with the results, as many steroids are agonists of both GR and MR. To investigate whether hMR and zfMR are similarly targeted by chemicals, we selected 18 natural and synthetic steroids and 13 ECs known or their anti-androgenic activity (Tables 1 and 2).
Data are presented as means ± SD values. n (replicates per experiment) = 4 per group.
To ensure that the effect of the chemicals is due to a direct and specific interaction with the MR (and not to a general effect on transcription for instance), we also tested these products in UG5LN cells (i.e., with the luciferase gene but lacking MR).

“And” between values parts separate entries of the source, which are not always exact repeats. Equal values may be shown once.

zebrafish MR (zfMR), sequence (A6YIH7 entry or part of it): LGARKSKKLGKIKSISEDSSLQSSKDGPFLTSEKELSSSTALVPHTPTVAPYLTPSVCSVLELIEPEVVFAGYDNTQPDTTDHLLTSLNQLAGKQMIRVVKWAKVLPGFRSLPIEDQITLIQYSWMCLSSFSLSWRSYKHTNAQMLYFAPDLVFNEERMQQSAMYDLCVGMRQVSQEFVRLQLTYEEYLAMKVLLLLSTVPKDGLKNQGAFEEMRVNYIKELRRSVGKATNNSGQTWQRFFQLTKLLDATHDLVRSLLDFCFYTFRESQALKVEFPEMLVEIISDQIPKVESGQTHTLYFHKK

On to `C[C@@H]1C[C@H]2[C@@H]3CCC4=CC(=O)C=C[C@]4(C)[C@@]3(F)[C@@H](O)C[C@]2(C)[C@@]1(O)C(=O)CO` [dexamethasone], for which, on zebrafish MR (zfMR) (in words), the “activity profile on zfMR (agonist / partial agonist / antagonist)” value was “agonist”. The “% max act” value on human MR (hMR) (agonism test, % of maximal luciferase activity induced by 10^−8 M aldosterone, determined at 10^−5, 10^−6 or 10^−7 M depending on chemical (footnote)) is 25.1% and 25.1 ± 7.9%. Further, the “activity profile on hMR (agonist / partial agonist / antagonist)” value on human MR (hMR) (in words, UG5LN-GAL4-hMR cells) was “partial agonism”. Also, in the test on UG5LN cell line, the “modulation of luciferase expression in UG5LN cell line” value was “do not modulate luciferase expression”.

As for bimedrazole, the EC50 entry was “unable to modulate luciferase expression” at zebrafish MR (zfMR) (agonism test, chemical alone, mean of at least three experiments) and “not active” on human MR (hMR) (agonism test, chemical alone, UG5LN-GAL4-hMR cells, mean of at least three experiments). The IC50 entry on zebrafish MR (zfMR) (antagonism test, in presence of aldosterone 0.5 10^−9 M) is reported as “unable to modulate luciferase expression”; at human MR (hMR) (antagonism test, in presence of aldosterone 10^−9 M, UG5LN-GAL4-hMR cells), “not able to decrease luciferase expression”. Moreover, the “modulation of luciferase expression in UG5LN cell line” value in the test on UG5LN cell line is listed as “do not modulate luciferase expression”.

(Values after PMC12636382, “Human and zebrafish mineralocorticoid receptors reporter cell assays to assess the activity of chemicals” (iScience, 2025).)
